This is an account of results in patent US20230346853A1, “Probiotic Lyophilizate Reactivation Composition for Improving Intestinal Survivability and Adhesion of Probiotics” (COSMAX NBT, INC., priority 2021, published 2023).

The subject of assay [1] is Lactobacillus plantarum HAC03. The assay is described as follows: in vitro Simulated Stomach Duodenum Passage (SSDP) probiotic survivability, lyophilized HAC03. In kind it is cell-based. Particulars: for survivability compared with fresh cells, in words / Artificial Bile Juice Survivability (%) / Artificial Bile Juice log CFU/mL / Artificial Gastric Juice Survivability (%) / Artificial Gastric Juice log CFU/mL: Table 3; for Artificial Bile Juice Survivability (%) / Artificial Bile Juice log CFU/mL / Artificial Gastric Juice Survivability (%) / Artificial Gastric Juice log CFU/mL: carbohydrate mixed with HAC03 lyophilizate; for viability at 100000 µM: Lactiplantibacillus plantarum; for intestinal survivability (acid resistance and bile resistance) in words: compared to fresh bacteria / distilled water. How it is done: The HAC03 strain was mixed with each of the single compositions and 1 mL of distilled water for 1 min. The compositions were formulated to have a final concentration of 0.1 M when dissolved in 1 ml of distilled water. Thereafter, 9 mL of distilled water adjusted to have a pH of 2.5 was added to each mixture. The pH was readjusted back to 2.5 in case of an increased pH due to the nature of some of the single ingredients (in order to not affect the survival of the probiotics). After adjusting the pH to 2.5, the tubes were incubated at 37° C. for 1 hour to apply the low-pH gastric stress condition. […] During the gastrointestinal tract assay, the samples were taken immediately, 1 hour, and […] after the incubation (t=0, 1, and 2). The probiotic survivability of each sample after gastric stress and bile stress was calculated by counting viable colonies.

Assay [2] has as its system Lactobacillus plantarum HAC03. The assay is described as follows: Zeta potential of lyophilized probiotics mixed with single ingredients (screening). It counts as cell-based. Particulars: 0.1 M ingredient, rehydrated 1 min, pH 2.5. Here is the method:
In this experimental example, Lactobacillus plantarum HAC03 (accession number: KCTC13242BP, the Korean Research Institute of Bioscience and Biotechnology) (hereinafter referred to as “HAC03”), which was described in Korean Patent Application No. 10-2017-0051574, was used as a probiotic strain.
Afterwards, 2 mL of pH 2.5 distilled water was added to each sample, the pH was re-adjusted using HCl 0.1 N, and 800 μl of the calibrated sample was loaded in DTS1080 cuvettes. The electrophoretic mobility was measured by the Zetaizer Nano ZEN 3600 (Malvern Panalytica, UK) after 2 minutes of equilibration and the Smoluchowski equation was used to convert the data into zetapotential values.
In this experiment, zeta potentials were measured at a pH of 2.5 in consideration of the highly acidic stomach environment, which is one of the initial hurdles that drastically reduce the survivability of the bacteria.

Where [3] appears, read: HAC03, 1 h, pH 2.5, read-out: Stomach Survivability (%).
[4] abbreviates: HAC03, 2 h, pH 6, read-out: Duodenum Survivability (%).
Setting [5] is: Table 1, 0.1 M ingredient, pH 2.5, 37° C., 1 hour.
The mark [6] stands for this setting: Table 1, 0.1 M ingredient, then bile salts (10% ox gall) and pH 6.0 synthetic duodenum juice, 2 hours.
[7] abbreviates: HAC03, Table 1, 0.1 M ingredient, pH 2.5, 37° C., 1 hour, read-out: Stomach Survivability (%).
[8] abbreviates: HAC03, Table 1, 0.1 M ingredient, then bile salts (10% ox gall) and pH 6.0 synthetic duodenum juice, 2 hours, read-out: Duodenum Survivability (%).

Where two headings read alike, the source gives them in different places.

Regarding `OC[C@H]1O[C@H](O[C@H]2[C@H](O)[C@@H](O)C(O)O[C@@H]2CO)[C@H](O)[C@@H](O)[C@@H]1O` (mixture of isomers) [Maltose], in assay [1], the “survivability compared with fresh cells, in words” value is reported as “survivability similar to or higher than that of fresh cells”; the “Artificial Bile Juice Survivability (%)” value is listed as 33.79%; the “Artificial Bile Juice log CFU/mL” value was 7.61 ± 0.13 log CFU/mL; the “Artificial Gastric Juice Survivability (%)” value is on record as 85.43%. Further, the “Artificial Gastric Juice log CFU/mL” value in assay [1] is listed as 8.02 ± 0.05 log CFU/mL.

With `O=C[C@@H](O)[C@H](O)[C@H](O)CO` [Arabinose], in assay [1], the “Artificial Bile Juice Survivability (%)” value is recorded as 9.45%, the “Artificial Bile Juice log CFU/mL” value was 7.02 ± 0.35 log CFU/mL, the “Artificial Gastric Juice Survivability (%)” value is listed as 17.78% and the “Artificial Gastric Juice log CFU/mL” value is listed as 7.12 ± 0.67 log CFU/mL.

Turning to `O=C(CO)[C@@H](O)[C@H](O)[C@H](O)CO` [Fructose], in assay [1], the “survivability compared with fresh cells, in words” value is recorded as “survivability similar to or higher than that of fresh cells”; the “Artificial Bile Juice Survivability (%)” value was 20.73%; the “Artificial Bile Juice log CFU/mL” value was 7.27 ± 0.48 log CFU/mL; the “Artificial Gastric Juice Survivability (%)” value is listed as 46.18%. Further, the “Artificial Gastric Juice log CFU/mL” value in assay [1] is given as 7.67 ± 0.37 log CFU/mL.

On to `N=C(N)NCCC[C@H](N)C(=O)O` [L-Arginine, L-arginine], for which the “zeta potential of lyophilized HAC03 mixed with the ingredient (sign, FIG. 1)” value (shortened to “zeta potential”) in assay [2] is on record as “positive zeta potentials”. The viability at 100000 µM in assay [1] (setting [3]) was 0.13%; in assay [1] (setting [4]), 0.08%. For the same compound, the “Stomach log CFU/mL” value in assay [1] (setting [5]) is 4.00 ± 0.00 log CFU/mL. Also, in assay [1] (setting [6]), the “Duodenum log CFU/mL” value was 3.73 ± 0.34 log CFU/mL. For the same compound, the “intestinal survivability (acid resistance and bile resistance) in words” value (“intestinal survivability” below) in assay [1] (Table 1) was “intestinal survivability far inferior to that of distilled water”.

Turning to `O=C1O[C@H]([C@@H](O)CO)C(O)=C1O` [L-Ascorbic acid, L-ascorbic acid], the “zeta potential” value in assay [2] is listed as “positive zeta potentials”. The figures for the viability at 100000 µM in assay [1] (setting [3]) and in assay [1] (setting [4]) were 0.4% and 0.1%, respectively. Moreover, the “Stomach log CFU/mL” value in assay [1] (setting [5]) is 4.08 ± 0.15 log CFU/mL. Further, in assay [1] (setting [6]), the “Duodenum log CFU/mL” value is 3.49 ± 0.00 log CFU/mL. Also, the “intestinal survivability” value in assay [1] (Table 1) is listed as “intestinal survivability far inferior to that of distilled water”.

Turning to `N[C@@H](CC(=O)O)C(=O)O` [L-Aspartic acid, L-aspartic acid], in assay [2], the “zeta potential” value is given as “positive zeta potentials”. The viability at 100000 µM in assay [1] (setting [7]) was 29.9%; in assay [1] (setting [8]) it was 1.86%. Moreover, in assay [1] (setting [5]), the “Stomach log CFU/mL” value is listed as 7.06 ± 0.56 log CFU/mL. Moreover, the “Duodenum log CFU/mL” value in assay [1] (setting [6]) is 5.80 ± 0.64 log CFU/mL. Also, the “intestinal survivability” value in assay [1] (Table 1) is given as “intestinal survivability far inferior to that of distilled water”.

Take `N[C@@H](Cc1c[nH]cn1)C(=O)O` [L-Histidine, L-histidine]: in assay [2], the “zeta potential” value is “negative zeta potentials”. Further, the viability at 100000 µM in assay [1] (setting [7]) is 56.6%; in assay [1] (setting [8]), 27.2%. Also, the “Stomach log CFU/mL” value in assay [1] (setting [5]) is reported as 7.83 ± 0.11 log CFU/mL. Moreover, the “Duodenum log CFU/mL” value in assay [1] (setting [6]) is recorded as 7.52 ± 0.08 log CFU/mL. In addition, the “intestinal survivability” value in assay [1] (Table 1) is “increased in acid resistance and bile resistance”.

For the compound `NCCC[C@H](N)C(=O)O` [L-Ornithine, L-ornithine], the “zeta potential” value in assay [2] is “negative zeta potentials”. In assay [1] (setting [5]), the “Stomach log CFU/mL” value is reported as 7.75 ± 0.02 log CFU/mL. The “Duodenum log CFU/mL” value in assay [1] (setting [6]) is on record as 7.57 ± 0.03 log CFU/mL.

`N[C@@H](Cc1ccc(O)cc1)C(=O)O` [L-Tyrosine, L-tyrosine]: in assay [2], the “zeta potential” value is on record as “negative zeta potentials”. The viability at 100000 µM in assay [1] (setting [7]) was 73.5%; in assay [1] (setting [8]), 33.9%. For the same compound, the “Stomach log CFU/mL” value in assay [1] (setting [5]) is 7.98 ± 0.04 log CFU/mL. The “Duodenum log CFU/mL” value in assay [1] (setting [6]) was 7.65 ± 0.01 log CFU/mL. The “intestinal survivability” value in assay [1] (Table 1) was “increased in acid resistance and bile resistance”.

On to `O=C(O)CC(O)C(=O)O` (centres unmarked) [Malic acid, malic acid], for which the “zeta potential” value in assay [2] is on record as “positive zeta potentials”. The figures for the viability at 100000 µM in assay [1] (setting [7]) and in assay [1] (setting [8]) were under 0.01% and under 0.003%, respectively. Moreover, in assay [1] (setting [5]), the “Stomach log CFU/mL” value is under 3.99 ± 0.00 log CFU/mL. Besides, the “Duodenum log CFU/mL” value in assay [1] (setting [6]) was under 3.49 ± 0.00 log CFU/mL. The “intestinal survivability” value in assay [1] (Table 1) is “intestinal survivability far inferior to that of distilled water”.

Take `OC[C@@H](O)[C@@H](O)[C@H](O)[C@H](O)CO` [Mannitol]: in assay [1], the “Artificial Bile Juice Survivability (%)” value is given as 11.77%, the “Artificial Bile Juice log CFU/mL” value is reported as 6.90 ± 0.44 log CFU/mL, the “Artificial Gastric Juice Survivability (%)” value is on record as 20.04% and the “Artificial Gastric Juice log CFU/mL” value was 7.18 ± 0.32 log CFU/mL.

Consider `C[C@H](O)[C@H](O)[C@@H](O)[C@@H](O)C=O` [Rhamnose], for which, in assay [1], the “Artificial Bile Juice Survivability (%)” value was 18.25%, the “Artificial Bile Juice log CFU/mL” value is given as 7.53 ± 0.08 log CFU/mL, the “Artificial Gastric Juice Survivability (%)” value is listed as 40.75% and the “Artificial Gastric Juice log CFU/mL” value is on record as 7.87 ± 0.10 log CFU/mL.

With `OC[C@@H](O)[C@@H](O)[C@H](O)[C@@H](O)CO` [Sorbitol], in assay [1], the “survivability compared with fresh cells, in words” value is “survivability similar to or higher than that of fresh cells”; the “Artificial Bile Juice Survivability (%)” value is reported as 40.46%; the “Artificial Bile Juice log CFU/mL” value is 7.69 ± 0.09 log CFU/mL; the “Artificial Gastric Juice Survivability (%)” value is 82.06%. Moreover, the “Artificial Gastric Juice log CFU/mL” value in assay [1] is given as 8.00 ± 0.05 log CFU/mL.

`OC[C@H]1O[C@@](CO)(O[C@H]2O[C@H](CO)[C@@H](O)[C@H](O)[C@H]2O)[C@@H](O)[C@@H]1O` [Sucrose]: in assay [1], the “survivability compared with fresh cells, in words” value was “survivability similar to or higher than that of fresh cells”; the “Artificial Bile Juice Survivability (%)” value is 42.99%; the “Artificial Bile Juice log CFU/mL” value was 7.71 ± 0.13 log CFU/mL; the “Artificial Gastric Juice Survivability (%)” value is given as 80.90%. Moreover, the “Artificial Gastric Juice log CFU/mL” value in assay [1] was 7.99 ± 0.13 log CFU/mL.

In the case of `OC[C@H]1O[C@H](O[C@H]2O[C@H](CO)[C@@H](O)[C@H](O)[C@H]2O)[C@H](O)[C@@H](O)[C@@H]1O` [Trehalose], in assay [1], the “survivability compared with fresh cells, in words” value is listed as “survivability similar to or higher than that of fresh cells”; the “Artificial Bile Juice Survivability (%)” value is listed as 28.10%; the “Artificial Bile Juice log CFU/mL” value was 7.36 ± 0.03 log CFU/mL; the “Artificial Gastric Juice Survivability (%)” value is recorded as 54.75%. Further, the “Artificial Gastric Juice log CFU/mL” value in assay [1] is given as 7.65 ± 0.05 log CFU/mL.

Turning to `O=C[C@H](O)[C@@H](O)[C@H](O)CO` [Xylose], in assay [1], the “Artificial Bile Juice Survivability (%)” value is 8.47%, the “Artificial Bile Juice log CFU/mL” value is 6.97 ± 0.49 log CFU/mL, the “Artificial Gastric Juice Survivability (%)” value is recorded as 27.36% and the “Artificial Gastric Juice log CFU/mL” value is reported as 7.50 ± 0.25 log CFU/mL.
